Test results published in ChEMBL document CHEMBL2040829, “Highly regioselective synthesis of N-3 organophosphorous derivatives of 3,4-dihydropyrimidin-2(1H)-ones and their calcium channel binding studies” (Eur J Med Chem, 2012).

Experiment: Inhibition of calcium channel in pig carotid artery assessed as relaxation of KCl-induced vascular smooth muscle contraction

`COC(=O)C1=C(C)NC(C)=C(C(=O)OC)C1c1ccccc1[N+](=O)[O-]` [NIFEDIPINE] gave an IC50 of 10 nM.
